Assay results: patent publication US7927624B2, “Hydrophilic/lipophilic polymeric matrix dosage formulation” (Jagotec AG, priority 2000, dated 2011)
Values after ≈ are worked out from the molar mass of the structure shown.

Experiment: physchem
Settings: water

**Q.** With `CCCN(CCC)CCc1cccc2c1CC(=O)N2` [ropinirole, Ropinirole] as the compound, how does the solubility read?
**A.** 133 mg/mL (≈ 511 mM)
